Measured values taken from ChEMBL document CHEMBL1201862, “PubChem BioAssay data set” (2004).
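1) Cells in 96-well plates. 2) Compound, 48 h, 5 concentrations. 3) Linear interpolation between surrounding doses. 4) Unreached endpoint = highest concentration. GI50 is the concentration that inhibits growth by half.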 Active and inactive are the calls of the source. No stated cut-off is given here; in the data, active = GI50 up to about 1.1 µM and inactive = higher.

Assays:
Assay in all cases: DTP human tumour cell line panel, 48 h
[1] = test system: SF-295
[2] = test system: SNB-19
[3] = test system: NCI-H460
[4] = test system: T47D
[5] = test system: EKVX
[6] = test system: OVCAR-3
[7] = test system: HCT-116
[8] = test system: RPMI-8226
[9] = test system: OVCAR-5
[10] = test system: OVCAR-4
[11] = test system: PC-3
[12] = test system: K562
[13] = test system: SW-620
[14] = test system: SF-268
[15] = test system: SF-539
[16] = test system: HT-29
[17] = test system: CAKI-1
[18] = test system: SN12C

| SMILES | GI50 [1] | GI50 [2] | GI50 [3] | GI50 [4] | GI50 [5] | GI50 [6] | GI50 [7] | GI50 [8] | GI50 [9] | GI50 [10] | GI50 [11] | GI50 [12] | GI50 [13] | GI50 [14] | GI50 [15] | GI50 [16] | GI50 [17] | GI50 [18] |
| --- | --- | --- | --- | --- | --- | --- | --- | --- | --- | --- | --- | --- | --- | --- | --- | --- | --- | --- |
| O=[N+]([O-])c1cc(Cl)cnc1Br | 3.4 µM (inactive) | 9.71 µM (inactive) | 3.95 µM (inactive) | 3.1 µM (inactive) | 4.19 µM (inactive) | 2.38 µM (inactive) | 4.42 µM (inactive) | 2.84 µM (inactive) | 3.27 µM (inactive) | 2.28 µM (inactive) | 7.53 µM (inactive) | 2.64 µM (inactive) | 3.42 µM (inactive) | 2.64 µM (inactive) | 2.05 µM (inactive) | 3.28 µM (inactive) | 1.86 µM (inactive) | 2.92 µM (inactive) |
| C=CC[C@]1(/C=N/O)CN(S(=O)(=O)CC[Si](C)(C)C)C[C@H]2CC=CC[C@H]21 | 15.6 µM (inactive) | 21.8 µM (inactive) | 18.4 µM (inactive) | 26.4 µM (inactive) | 25.7 µM (inactive) | – | 14.2 µM (inactive) | 13.4 µM (inactive) | 21.7 µM (inactive) | 14.8 µM (inactive) | 17.6 µM (inactive) | 18.4 µM (inactive) | 18.1 µM (inactive) | 32.9 µM (inactive) | 18.2 µM (inactive) | 16.2 µM (inactive) | 17.1 µM (inactive) | 16.2 µM (inactive) |
| S=c1cc(-c2ccc3c(c2)OCO3)s[nH]1 | > 100 µM (inactive) | > 100 µM (inactive) | > 100 µM (inactive) | 89.7 µM (inactive) | > 100 µM (inactive) | > 100 µM (inactive) | > 100 µM (inactive) | > 100 µM (inactive) | > 100 µM (inactive) | > 100 µM (inactive) | > 100 µM (inactive) | > 100 µM (inactive) | > 100 µM (inactive) | > 100 µM (inactive) | > 100 µM (inactive) | > 100 µM (inactive) | > 100 µM (inactive) | > 100 µM (inactive) |
| OCc1ccc2c(c1)CC1(C2)Cc2cc3c(cc2C1)CCC3 | 3.39 µM (inactive) | 4.89 µM (inactive) | 3.87 µM (inactive) | 4.82 µM (inactive) | 8.04 µM (inactive) | 3.02 µM (inactive) | 3.72 µM (inactive) | 2.76 µM (inactive) | > 100 µM (inactive) | 17.4 µM (inactive) | 1.19 µM (inactive) | 0.585 µM (active) | 1.77 µM (inactive) | 17.5 µM (inactive) | 3.57 µM (inactive) | 2.22 µM (inactive) | 6.31 µM (inactive) | 2.45 µM (inactive) |
| COC1OC(C)/C(=N/O)C2OC(C)(C)OC12 (stereo unspecified) | > 100 µM (inactive) | > 100 µM (inactive) | > 100 µM (inactive) | > 100 µM (inactive) | > 100 µM (inactive) | > 100 µM (inactive) | > 100 µM (inactive) | > 100 µM (inactive) | > 100 µM (inactive) | > 100 µM (inactive) | > 100 µM (inactive) | > 100 µM (inactive) | > 100 µM (inactive) | > 100 µM (inactive) | > 100 µM (inactive) | > 100 µM (inactive) | > 100 µM (inactive) | > 100 µM (inactive) |
| C[N+](C)=C/C=C(\Cl)c1ccc2ccccc2c1 | 16.9 µM (inactive) | 21.7 µM (inactive) | 23.3 µM (inactive) | 12.4 µM (inactive) | 24.5 µM (inactive) | 6.24 µM (inactive) | 2.76 µM (inactive) | 2.89 µM (inactive) | 19.9 µM (inactive) | 3.82 µM (inactive) | 19.8 µM (inactive) | 5.04 µM (inactive) | 4.29 µM (inactive) | 22.9 µM (inactive) | 25.1 µM (inactive) | 7.64 µM (inactive) | 11.9 µM (inactive) | 19.1 µM (inactive) |
| C1C2CC3CC1CC(c1nn4c(C56CC7CC(CC(C7)C5)C6)nnc4s1)(C2)C3 | > 100 µM (inactive) | > 100 µM (inactive) | > 100 µM (inactive) | > 100 µM (inactive) | > 100 µM (inactive) | > 100 µM (inactive) | > 100 µM (inactive) | > 100 µM (inactive) | > 100 µM (inactive) | > 100 µM (inactive) | > 100 µM (inactive) | > 100 µM (inactive) | > 100 µM (inactive) | > 100 µM (inactive) | > 100 µM (inactive) | > 100 µM (inactive) | > 100 µM (inactive) | > 100 µM (inactive) |
| O=C1Oc2ccccc2C(=O)/C1=C\Nc1nc(-c2ccc(O)c(O)c2)cs1 | 24.8 µM (inactive) | 11.7 µM (inactive) | 5.05 µM (inactive) | 4.55 µM (inactive) | 12.7 µM (inactive) | 2.29 µM (inactive) | 2.7 µM (inactive) | 1.53 µM (inactive) | 16.2 µM (inactive) | 10.7 µM (inactive) | 3.24 µM (inactive) | 1.36 µM (inactive) | 2.44 µM (inactive) | 5.25 µM (inactive) | 5.46 µM (inactive) | 4.63 µM (inactive) | 4.63 µM (inactive) | 4.79 µM (inactive) |
| CCOC(=O)c1cc(I)c(-c2cc(C)no2)n1C | 55.7 µM (inactive) | > 100 µM (inactive) | 76.7 µM (inactive) | 32.2 µM (inactive) | 27 µM (inactive) | 38.4 µM (inactive) | 40.4 µM (inactive) | 19.3 µM (inactive) | 93.3 µM (inactive) | 21.8 µM (inactive) | 38.5 µM (inactive) | 26.8 µM (inactive) | 60.7 µM (inactive) | 60.1 µM (inactive) | > 100 µM (inactive) | 74.1 µM (inactive) | 20.3 µM (inactive) | 21.5 µM (inactive) |
| COC(=O)C1(CCC(C)=O)CCCCCC1=O (stereo unspecified) | > 100 µM (inactive) | > 100 µM (inactive) | > 100 µM (inactive) | > 100 µM (inactive) | > 100 µM (inactive) | > 100 µM (inactive) | > 100 µM (inactive) | > 100 µM (inactive) | > 100 µM (inactive) | > 100 µM (inactive) | > 100 µM (inactive) | > 100 µM (inactive) | > 100 µM (inactive) | > 100 µM (inactive) | > 100 µM (inactive) | > 100 µM (inactive) | > 100 µM (inactive) | > 100 µM (inactive) |
| CN[C@@H](Cc1cccc2ccccc12)C(=O)N[C@@H](CC(C)C)B(O)O | < 0.01 µM (active) | < 0.01 µM (active) | < 0.0113 µM (active) | < 0.01 µM (active) | – | < 0.01 µM (active) | < 0.01 µM (active) | < 0.01 µM (active) | < 0.01 µM (active) | < 0.01 µM (active) | < 0.0119 µM (active) | < 0.01 µM (active) | < 0.01 µM (active) | < 0.01 µM (active) | < 0.01 µM (active) | < 0.01 µM (active) | < 0.01 µM (active) | < 0.01 µM (active) |
| CCc1ccccc1NC(=O)C(=O)CC(=O)c1sc(Nc2ccccc2Cl)nc1C | 28.2 µM (inactive) | 39.1 µM (inactive) | 21.2 µM (inactive) | 35.7 µM (inactive) | 52.4 µM (inactive) | 19.5 µM (inactive) | 17.9 µM (inactive) | 19.2 µM (inactive) | > 100 µM (inactive) | 36.8 µM (inactive) | 26.9 µM (inactive) | 29.4 µM (inactive) | 25.6 µM (inactive) | 66.4 µM (inactive) | 24.4 µM (inactive) | 22.1 µM (inactive) | 46.1 µM (inactive) | 42.7 µM (inactive) |
| OCCN(C1=NCCN1)/[N+](=C/c1ccccc1O)[CH-]c1ccccc1O | > 100 µM (inactive) | > 100 µM (inactive) | > 100 µM (inactive) | > 100 µM (inactive) | > 100 µM (inactive) | > 100 µM (inactive) | > 100 µM (inactive) | > 100 µM (inactive) | > 100 µM (inactive) | > 100 µM (inactive) | > 100 µM (inactive) | > 100 µM (inactive) | > 100 µM (inactive) | > 100 µM (inactive) | > 100 µM (inactive) | > 100 µM (inactive) | > 100 µM (inactive) | > 100 µM (inactive) |
| O=c1oc2ccc(Cl)cc2cc1-c1cn2ccsc2n1 | 29.2 µM (inactive) | 51.9 µM (inactive) | 49.9 µM (inactive) | 34.5 µM (inactive) | 26.6 µM (inactive) | 40 µM (inactive) | 36.6 µM (inactive) | 41.5 µM (inactive) | – | 33.4 µM (inactive) | 52.6 µM (inactive) | 33.5 µM (inactive) | 59.7 µM (inactive) | 46.6 µM (inactive) | 98.4 µM (inactive) | 52.8 µM (inactive) | 42.8 µM (inactive) | 57 µM (inactive) |
| CCCCCn1c(=O)c2c(=O)[nH][nH]c2c2ccccc21 | > 100 µM (inactive) | – | > 100 µM (inactive) | > 100 µM (inactive) | – | > 100 µM (inactive) | > 100 µM (inactive) | > 100 µM (inactive) | > 100 µM (inactive) | > 100 µM (inactive) | > 100 µM (inactive) | > 100 µM (inactive) | > 100 µM (inactive) | > 100 µM (inactive) | > 100 µM (inactive) | > 100 µM (inactive) | > 100 µM (inactive) | > 100 µM (inactive) |
| COc1ccc2c(c1)CCc1c-2n(CCN2CCOCC2)c2ccc(OC)cc12 | 61.4 µM (inactive) | – | 40.5 µM (inactive) | > 100 µM (inactive) | – | > 100 µM (inactive) | 63.2 µM (inactive) | 63.5 µM (inactive) | > 100 µM (inactive) | > 100 µM (inactive) | 63.2 µM (inactive) | 14.8 µM (inactive) | 48.8 µM (inactive) | > 100 µM (inactive) | > 100 µM (inactive) | 16.1 µM (inactive) | > 100 µM (inactive) | > 100 µM (inactive) |
